Test results as given in patent publication US20230107216A1, “PANTETHEINE DERIVATIVES AND USES THEREOF” (Comet Therapeutics, Inc., priority 2018, published 2023).

The compounds below were run on HepG2 cells (assay: Glucose uptake (Glucose Uptake-Glo)). Details: Homo sapiens, 10 uM, read-out: % increase in Glucose Uptake.
Type: cell-based

SMILES | activation at 10 µM [%]
C[C@H](NC(=O)OC(C)(C)C)C(=O)OCC(C)(C)[C@@H](O)C(=O)NCCC(=O)NCCS [Compound 1278, (3R)-3-hydroxy-2,2-dimethyl-3-([2-[(2-sulfanylethyl)carbamoyl]ethyl]carbamoyl)propyl (2S)-2-[(tert-butoxycarbonyl)amino]propanoate] | ≥ 30
C[C@H](NC(=O)OC(C)(C)C)C(=O)OCC(C)(C)[C@@H](O)C(=O)NCCC(=O)NCCSSCCNC(=O)CCNC(=O)[C@H](O)C(C)(C)COC(=O)[C@H](C)NC(=O)OC(C)(C)C [Compound 1277, (3R)-3-[[2-([2-[(2-[3-[(2R)-4-[[(2S)-2-[(tert-butoxycarbonyl)amino]propanoyl]oxy]-2-hydroxy-3,3-dimethylbutanamido]propanamido]ethyl)disulfanyl]ethyl]carbamoyl)ethyl]carbamoyl]-3-hydroxy-2,2-dimethylpropyl (2S)-2-[(tert-butoxycarbonyl)amino]propanoate] | ≥ 10
CCC(=O)OCC(C)(C)[C@@H](O)C(=O)NCCC(=O)NCCSSCCNC(=O)CCNC(=O)[C@H](O)C(C)(C)COC(=O)CC [Compound 1271, (3R)-3-hydroxy-3-[[2-([2-[(2-[3-[(2R)-2-hydroxy-3,3-dimethyl-4-(propanoyloxy)butanamido]propanamido]ethyl)disulfanyl]ethyl]carbamoyl)ethyl]carbamoyl]-2,2-dimethylpropyl propanoate] | ≥ 10
CC(=O)SCCNC(=O)CCNC(=O)[C@H](O)C(C)(C)COC(=O)CNC(=O)OC(C)(C)C [Compound 1275, (3R)-3-[(2-[[2-(acetylsulfanyl)ethyl]carbamoyl]ethyl)carbamoyl]-3-hydroxy-2,2-dimethylpropyl 2-[(tert-butoxycarbonyl)amino]acetate] | ≥ 20
CC(=O)SCCNC(=O)CCNC(=O)[C@H](O)C(C)(C)CO [Compound 1241, (R)—S-(2-(3-(2,4-dihydroxy-3,3-dimethylbutanamido)propanamido)ethyl) ethanethioate] | ≥ 30

Same assay, conditions: Homo sapiens, 50 uM, read-out: % increase in Glucose Uptake

SMILES | activation at 50 µM [%]
COC(=O)CCC1(CC(=O)SCCNC(=O)CCNC(=O)[C@H](O)C(C)(C)COC(C)=O)OCC(C)(C)CO1 [Compound 1268, methyl 3-(2-[2-[(2-[3-[(2R)-4-(acetyloxy)-2-hydroxy-3,3-dimethylbu-tanamido]propanamido]ethyl)sulfanyl]-2-oxoethyl]-5,5-dimethyl-1,3-dioxan-2-yl)propanoate] | ≥ 30
CC(=O)OCC(C)(C)[C@@H](O)C(=O)NCCC(=O)NCCSC(=O)/C=C/C(=O)O [Compound 144, (2E)-4-[(2-[3-[(2R)-4-(acetyloxy)-2-hydroxy-3,3-dimethylbutanamido]propanamido]ethyl)sulfanyl]-4-oxobut-2-enoic acid] | ≥ 30
CC(C)(C)OC(=O)NCC(=O)OCC(C)(C)[C@@H](O)C(=O)NCCC(=O)NCCS [Compound 1274, (3R)-3-hydroxy-2,2-dimethyl-3-([2-[(2-sulfanylethyl)carbamoyl]ethyl]carbamoyl)propyl 2-[(tert-butoxycarbonyl)amino]acetate] | ≥ 30
CC(=O)O[C@@H](C(=O)NCCC(=O)NCCSC(=O)CCC(=O)O)C(C)(C)CO [Compound 211, 4-[(2-[3-[(2R)-2-(acetyloxy)-4-hydroxy-3,3-dimethylbutanamido]propanamido]ethyl)sulfanyl]-4-oxobutanoic acid] | ≥ 30
